Data on six molecules can be found in the NIST ThermoML archive (doi:10.1016/j.jct.2008.10.002).

SMILES strings stand for the structures. Numbers after ± are expanded uncertainties.

For data set [1] the following is noted: 101.33 kPa, Liquid, Vibrating tube method.
The nature of data set [2]: molar heat capacity at constant pressure. The conditions noted are these: 101.33 kPa, Liquid, Small sample (50 mg) DSC.
The nature of data set [3]: excess molar enthalpy (molar enthalpy of mixing); xn = mol fraction of the nth substance listed. The conditions noted are these: 303.15 K, 101.3 kPa, Liquid.

For orientation: mass density means the mass of a sample divided by its volume. Consider `CCCCn1cc[n+](C)c1.COS(=O)(=O)[O-]` [1-butyl-3-methylimidazolium methyl sulfate], for which the mass density is given as 1210.7 ± 0.4 kg/m3 in data set [1] (293.15 K); 1207.4 ± 0.4 kg/m3 in data set [1] (298.15 K); 1204.1 ± 0.4 kg/m3 in data set [1] (303.15 K); 1200.8 ± 0.4 kg/m3 in data set [1] (308.15 K); 1197.5 ± 0.4 kg/m3 in data set [1] (313.15 K); 1194.2 ± 0.4 kg/m3 in data set [1] (318.15 K). Further, the “molar heat capacity at constant pressure” value in data set [2] (293.15 K) is 413.7 ± 6.4 J/K/mol; in data set [2] (298.15 K) it was 416.2 ± 6.4 J/K/mol; in data set [2] (303.15 K), 418.5 ± 6.5 J/K/mol; in data set [2] (308.15 K), 420.9 ± 6.5 J/K/mol; in data set [2] (313.15 K), 423.3 ± 6.6 J/K/mol; in data set [2] (318.15 K), 425.6 ± 6.6 J/K/mol.
For the molecule `CCCCn1cc[n+](C)c1.O=S(=O)([O-])C(F)(F)F` [1-butyl-3-methylimidazolium trifluoromethanesulfonate], the mass density in data set [1] (293.15 K) is listed as 1301.6 ± 0.5 kg/m3; in data set [1] (298.15 K) it was 1297.6 ± 0.5 kg/m3; in data set [1] (303.15 K), 1293.7 ± 0.5 kg/m3; in data set [1] (308.15 K), 1289.7 ± 0.5 kg/m3; in data set [1] (313.15 K), 1285.8 ± 0.5 kg/m3; in data set [1] (318.15 K) it was 1281.9 ± 0.5 kg/m3. The “molar heat capacity at constant pressure” value in data set [2] (293.15 K) came to 421.6 ± 6.5 J/K/mol; in data set [2] (298.15 K), 424.1 ± 6.6 J/K/mol; in data set [2] (303.15 K) it was 426.7 ± 6.6 J/K/mol; in data set [2] (308.15 K) it was 429.5 ± 6.7 J/K/mol; in data set [2] (313.15 K), 432.4 ± 6.7 J/K/mol; in data set [2] (318.15 K), 435.5 ± 6.7 J/K/mol.
Take `CCCC[n+]1cccc(C)c1.F[B-](F)(F)F` [1-butyl-3-methylpyridinium tetrafluoroborate] + O: the excess molar enthalpy is 0.261 ± 0.00574 kcal/mol in data set [3] (x1 = 0.1023); 0.421 ± 0.00884 kcal/mol in data set [3] (x1 = 0.2013); 0.514 ± 0.0108 kcal/mol in data set [3] (x1 = 0.3036); 0.554 ± 0.0115 kcal/mol in data set [3] (x1 = 0.4004); 0.543 ± 0.0112 kcal/mol in data set [3] (x1 = 0.4891); 0.497 ± 0.0105 kcal/mol in data set [3] (x1 = 0.5761). Besides, the excess molar enthalpy turned out to be 0.428 ± 0.00908 kcal/mol in data set [3] (x1 = 0.6659) and 0.256 ± 0.0055 kcal/mol in data set [3] (x1 = 0.8154).
As to `CCOS(=O)(=O)[O-].CCn1cc[n+](C)c1` [1-ethyl-3-methylimidazolium ethyl sulfate], the mass density was 1240.6 ± 0.4 kg/m3 in data set [1] (293.15 K); 1237.2 ± 0.4 kg/m3 in data set [1] (298.15 K); 1233.8 ± 0.4 kg/m3 in data set [1] (303.15 K); 1230.4 ± 0.4 kg/m3 in data set [1] (308.15 K); 1227 ± 0.4 kg/m3 in data set [1] (313.15 K); 1223.7 ± 0.4 kg/m3 in data set [1] (318.15 K). Further, the “molar heat capacity at constant pressure” value in data set [2] (293.15 K) was found to be 392.2 ± 6.1 J/K/mol; in data set [2] (298.15 K), 394.4 ± 6.1 J/K/mol; in data set [2] (303.15 K), 396.8 ± 6.1 J/K/mol; in data set [2] (308.15 K), 399.3 ± 6.2 J/K/mol; in data set [2] (313.15 K), 402 ± 6.2 J/K/mol; in data set [2] (318.15 K), 404.9 ± 6.3 J/K/mol.
`CCn1cc[n+](C)c1.O=S(=O)([O-])C(F)(F)F` [1-ethyl-3-methylimidazolium trifluoromethanesulfonate]: the mass density in data set [1] (293.15 K) is 1389.5 ± 0.6 kg/m3; in data set [1] (298.15 K) it was 1385.3 ± 0.6 kg/m3; in data set [1] (303.15 K), 1381.1 ± 0.6 kg/m3; in data set [1] (308.15 K), 1376.9 ± 0.6 kg/m3; in data set [1] (313.15 K), 1372.7 ± 0.6 kg/m3; in data set [1] (318.15 K) it was 1368.6 ± 0.6 kg/m3. Besides, the “molar heat capacity at constant pressure” value was determined as 361.1 ± 5.6 J/K/mol in data set [2] (293.15 K); 363.2 ± 5.6 J/K/mol in data set [2] (298.15 K); 365.3 ± 5.7 J/K/mol in data set [2] (303.15 K); 367.4 ± 5.7 J/K/mol in data set [2] (308.15 K); 369.6 ± 5.7 J/K/mol in data set [2] (313.15 K); 371.8 ± 5.8 J/K/mol in data set [2] (318.15 K).
For `O` [water], in data set [1] (308.15 K), the mass density was determined as 994.1 ± 0.3 kg/m3. Further, the “molar heat capacity at constant pressure” value in data set [2] (293.15 K) stood at 75.4 ± 1.2 J/K/mol; in data set [2] (298.15 K), 75.3 ± 1.2 J/K/mol; in data set [2] (303.15 K), 75.3 ± 1.2 J/K/mol; in data set [2] (308.15 K) it was 75.2 ± 1.2 J/K/mol; in data set [2] (313.15 K), 75.2 ± 1.2 J/K/mol; in data set [2] (318.15 K), 75.3 ± 1.2 J/K/mol.
